Experiments:
[1] = Mesophase (phase behaviour) of lipid nanoparticles by synchrotron SAXS; format: physicochemical
Method: Nanoparticle preparations (50 μL) were loaded into a transparent 96-well half-area polystyrene plate (Greiner Bio-One, Interpath Inc., VIC, Australia), and 50 μL of a suitable buffer solution (Citrate buffer) of specified pH was added to the plate. Phase behaviour of the nanoparticles was characterized at the SAXS/WAXS beamline of the Australian Synchrotron. The instrument used an X-ray wavelength of λ=1.128 Å (11.0 keV) with atypical flux of approximately […]. The sample to detector distance was chosen as 1.6 m which provided a q-range of 0.01-0.5 Å^−1 (scattering vector q=4π sin (θ/2)/λ, whereby θ is the scattering angle and λ is the wavelength). Sample scattering patterns were obtained at 25° C. and 37° C. following the procedure reported in the literature. The plate was placed in a holder perpendicular to the X-ray beam. The sample holder was moved by motors that were controlled by in-house ScatterBrain software for automatic SAXS screening. The sample temperature was controlled by a circulating water bath and kept at 25° C. or 37° C. Two-dimensional X-ray diffraction images were recorded on a Decris-Pilatus 1-M detector using ScatterBrain. The scattering images were integrated into one dimensional plots of intensity versus q for phase identification. The mesophase of the nanoparticles were assigned by matching the relative positions of the scattering peaks with known patterns for bicontinuous cubic, hexagonal, lamellar, and micellar cubic phase. The lattice parameter of the nanoparticles were calculated using the IDL-based software AXcess following the described method (Tran et al. 2018; Tran et al. 2016).
As detailed in Example 2 above, lipid nanoparticles described herein were prepared by doping the synthesised amino lipids into MO at 8 different compositions (RMO=0.05, 0.1, 0.15, 0.2, 0.25, 0.3, 0.4, 0.5) and dispersed with Pluronic F-127. Mesophase structure of the drug-free formulations was determined by SAXS over ten different pH values (a pH range of 2.5 to 10). FIG. 3 represents the SAXS partial phase diagrams of these nanoparticles at 25° C. The shape of an amphiphile can be characterised by the critical packing parameter (CPP). CPP=V/al, in which V is the effective volume of the amphiphile's hydrophobic tail, a is the effective cross-sectional area of the headgroup, and l is the effective length of the hydrocarbon chain. Lamellar phases (Lα) are typically observed with a zero interfacial curvature. For CPP values greater than 1, inverse phases, such as Q2 and H2 phases, are formed with increasing negative interfacial curvatures. The Q2 phase consists of lipid bilayers arranged in periodic 3D structures by twisting the bilayers into the shape of infinite periodic minimal surfaces. The H2 is a closed, extended micellar columnar structure, where there is no direct contact between the water inside and outside the H2 phase.

[2] = Particle size and polydispersity index of lipid nanoparticles by dynamic light scattering; format: physicochemical; conditions: mean ± SD n=3
Method: The average hydrodynamic diameter and polydispersity index (PDI) of lipid nanoparticles were measured by dynamic light scattering (DLS) using a Malvern Zetasizer Nano ZS (Malvern Instruments, UK). All measurements were performed at 25° C. (n=3) by loading the lipid formulations (10 μL) into clear 96-well half-area polystyrene plates and diluting with 190 μL milli-Q water (Zhai et al. 2015).

[3] = cited from earlier work
[4] = In vitro release of SN-38 by dynamic dialysis; format: physicochemical; conditions: pure-drug suspension, no lipid nanocarriers, within 60-90 min
Method: In vitro release of SN-38 from the nanoparticles was evaluated using a dynamic dialysis method (Zambito, Y. International Journal of Pharmaceutics 2012, 434 (1), 28-34). The drug release rate was determined by placing the dispersion in a dialysis tube (Pur-A-Lyzer™ Maxi Dialysis tube molecular weight cut off 3500) and exhaustively dialysing.
After removing the free drug, the highest SN-38 loaded nanoparticles (1 mL formulation) were placed inside the dialysis tube. The dialysis tube was then immersed in a 1000 mL buffer maintained at 37±1.0° C. and stirred at 400 rpm. The analysis of the separation of free drug from drug-loaded formulations was carried out over a period of 420 min. Release experiments were performed in triplicate on three independently prepared SN-38 loaded formulations. For physiological pH, experiments were carried out by dialysing the formulations against 1000 mL of phosphate buffer (pH 7.0). Lower pH experiments were carried out by dialysing the formulations against 1000 mL of phosphate buffer adjusted to the required pH. The SN-38 that remained in the dialysis tube was quantitatively measured by the HPLC method. At predetermined time intervals (60 min, 120 min, 240 min and 420 min), 10 μL of the sample was withdrawn from the dialysis tube and diluted with 990 μL of the HPLC solvent. […]

[5] = Drug loading and encapsulation efficiency of SN-38 nanoparticles by HPLC; format: physicochemical
Method: The amount of drug loading (DL) and encapsulation efficiency (EE) were determined for each of the four formulations of Example 5 using an HPLC method.
The nanoparticles containing the drug was centrifuged at 1000×g for 25 min at 25° C. to remove any un-encapsulated drug agglomerates. The supernatant was collected and vortexed for 10 min at 2500 rpm for uniform distribution.
For the SN-38 drug content assay, a UV variable detector at a wavelength of 265 nm and an Agilent Zorbax SB-C18 column (4.6 mm×250 mm, five μm) were utilised. The mobile phase consisted of a 50:50 (v/v) mixture of 25 mM NaH2PO4 (pH=3.1) buffer and acetonitrile. The mobile phase pH was maintained at 3.8 to ensure the analyte, SN-38, was in the closed lactone ring form during the assay. The sample for HPLC was prepared by diluting the nanoparticles 100 times with HPLC solvents (10 μL of the formulation with 990 μL 50/50 mixture of buffer and acetonitrile). During the assay, an aliquot of 20 μL of the sample was injected in duplicate into the HPLC system at a flow rate of 1 ml/min. The SN-38 content in the formulation was quantitatively determined using a standard curve prepared as outlined in previously published journal articles (Zhang et al. 2004; Escoriaza et al. 2000).
The following equation was used calculate the encapsulation efficiency (EE %) […]

[6] = MO nanoparticles with amino lipid at RMO 0.05, Pluronic F-127, 25° C.
[7] = MO nanoparticles with amino lipid at RMO 0.1, Pluronic F-127, 25° C.
[8] = MO nanoparticles with amino lipid at RMO 0.15, Pluronic F-127, 25° C.
[9] = MO nanoparticles with amino lipid at RMO 0.2, Pluronic F-127, 25° C.
[10] = MO nanoparticles with amino lipid at RMO 0.25, Pluronic F-127, 25° C.
[11] = MO nanoparticles with amino lipid at RMO 0.3, Pluronic F-127, 25° C.
[12] = MO nanoparticles with amino lipid at RMO 0.4, Pluronic F-127, 25° C.
[13] = MO nanoparticles with amino lipid at RMO 0.5, Pluronic F-127, 25° C.

PDI of the formulations [2, 6] | Particle Size in nm [2, 6] [nm] | PDI of the formulations [2, 7] | Particle Size in nm [2, 7] [nm] | PDI of the formulations [2, 8] | Particle Size in nm [2, 8] [nm] | PDI of the formulations [2, 9] | Particle Size in nm [2, 9] [nm] | PDI of the formulations [2, 10] | Particle Size in nm [2, 10] [nm] | PDI of the formulations [2, 11] | Particle Size in nm [2, 11] [nm] | PDI of the formulations [2, 12] | Particle Size in nm [2, 12] [nm] | PDI of the formulations [2, 13] | Particle Size in nm [2, 13] [nm] | SMILES | further results
0.25 ± 0.03 | 180 ± 3 | 0.20 ± 0.04 | 176 ± 4 | 0.23 ± 0.04 | 168 ± 4 | 0.22 ± 0.05 | 185 ± 6 | 0.19 ± 0.03 | 180 ± 2 | 0.23 ± 0.03 | 194 ± 5 | 0.15 ± 0.05 | 200 ± 5 | 0.18 ± 0.05 | 209 ± 5 | CCCCCCCC/C=C\CCCCCCCC(=O)NCCN1CCCCC1 [Lipid-13, N-(2-(piperidin-1-yl)ethyl)oleamide] | pH difference within which the change from H2 to Q2 is observed ([1]; RMO=0.2-0.3): ≤ 0.5 pH unit; pH of H2→Q2 transition ([1]; RMO=0.2-0.3): 7.0 pH
0.23 ± 0.03 | 214 ± 4 | 0.20 ± 0.05 | 218 ± 3 | 0.20 ± 0.05 | 239 ± 3 | 0.30 ± 0.03 | 250 ± 2 | 0.25 ± 0.03 | 191 ± 8 | 0.25 ± 0.05 | 206 ± 11 | 0.40 ± 0.04 | 205 ± 6 | 0.38 ± 0.03 | 137 ± 6 | CCCCCCCC/C=C\CCCCCCCC(=O)NCCN1CCOCC1 [Lipid-12] | –
0.16 ± 0.03 | 217 ± 6 | 0.21 ± 0.02 | 224 ± 3 | 0.2 ± 0.05 | 259 ± 8 | 0.19 ± 0.03 | 271 ± 4 | 0.39 ± 0.03 | 250 ± 3 | 0.22 ± 0.02 | 246 ± 4 | 0.24 ± 0.03 | 244 ± 6 | 0.25 ± 0.04 | 265 ± 4 | CCCCCCCC/C=C\CCCCCCCC(=O)NCc1ccncc1 [Lipid-10, N-(pyridine-4-ylmethyl)oleamide] | Shift of H2 to Q2 transition at 37° C. compared to 25° C. (higher) ([1]; RMO 0.4, pH 4.0 to 7.5): 0.5 pH unit; pH at which Q2 is reached in the transition from H2 at pH 7.5 ([1]; RMO=0.4-0.5, 25° C.): 5.5 pH; pH resulting in liposome formation ([1]; RMO=0.4-0.5, further decrease in pH): 4.0 pH; RMO at which the transition from Q2 to H2 occurred ([1]; pH 7, MO nanoparticles): 0.4
– | – | – | – | – | – | – | – | – | – | – | – | – | – | – | – | CCc1c2c(nc3ccc(O)cc13)-c1cc3c(c(=O)n1C2)COC(=O)[C@]3(O)CC [SN-38] | Solubility in water [3]: 7 to 11 µg/mL; SN-38 released through dialysis membrane [4]: More than 90%; Loading relative to solubility of SN-38 in water ([5]; 844 μg/ml loading): ~100 times; Loading of SN-38 ([5]; highest loading achieved in MO/Lipid-10 nanoparticles): 844 µg/mL
0.23 ± 0.04 | 284 ± 2 | 0.18 ± 0.03 | 255 ± 4 | 0.20 ± 0.03 | 300 ± 7 | 0.23 ± 0.02 | 267 ± 4 | 0.28 ± 0.02 | 313 ± 4 | 0.20 ± 0.02 | 290 ± 4 | 0.10 ± 0.02 | 272 ± 5 | 0.21 ± 0.03 | 300 ± 4 | CCCCCCCC/C=C\CCCCCCCC(=O)NCc1ccccn1 [Lipid-11] | Phase observed ([1]; RMO=0.4, neutral pH, MO nanoparticles): L2 phase; pH of transition from L2 to Q2 ([1]; RMO=0.4-0.5): 3.0 pH
